# In paper PMC4621755 (Chemistry & biology, 2015):
# Molecular target: T1, Acaa2 (Mus musculus, UniProt Q8BWT1)
# T1 sequence (Q8BWT1 1-397): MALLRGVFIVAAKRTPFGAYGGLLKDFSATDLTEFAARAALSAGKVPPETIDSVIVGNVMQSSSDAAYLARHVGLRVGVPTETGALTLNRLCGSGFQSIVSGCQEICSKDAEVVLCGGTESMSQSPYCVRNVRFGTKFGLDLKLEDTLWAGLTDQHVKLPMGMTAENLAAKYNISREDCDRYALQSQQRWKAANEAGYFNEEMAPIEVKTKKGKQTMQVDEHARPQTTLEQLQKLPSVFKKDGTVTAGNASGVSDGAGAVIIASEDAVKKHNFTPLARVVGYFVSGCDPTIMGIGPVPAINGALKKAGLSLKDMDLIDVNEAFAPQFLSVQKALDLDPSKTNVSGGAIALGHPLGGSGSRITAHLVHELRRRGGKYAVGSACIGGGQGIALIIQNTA
# Assay: competition against IAyne labelling, in-gel fluorescence
# Format: biochemical
# Conditions: covalent; lysate of overexpressing HEK293T; 30 min preincubation
smiles,measurement,value
N#Cc1c(Cl)c(Cl)c(Cl)c(C#N)c1Cl [chlorothalonil],% reduction in IAyne labeling at 100 nM,9.4 ± 1.2%
